Data published in patent US9695198B2, “Factor IXa inhibitors” (MERCK SHARP & DOHME CORP., priority 2012, dated 2017).
pIC50: −log10 of the molar value.

Biological target: Factor IXa (Homo sapiens, UniProt P00740)
Assay: Determination of inhibitory activity against Factor IXa (cleavage of fluorescent peptide CH3SO2-D-CHG-Gly-Arg-AFC)
Assay type: biochemical
Settings: Factor IXa Inhibition table; low enzyme format; read-out: FIXa Low Enzyme
Method: Determination of Inhibitory Activity Against Factor IXa
Formation of a clot to stem bleeding at a site of blood vessel injury involves the coordinated activity of a group of plasma proteins that initiate and propagate fibrin formation and subsequently protect fibrin from premature degradation. Factor IX is a key component of the plasma system that forms a fibrin clot at a site of vascular injury. The activity of Factor IXa is measured by monitoring the cleavage of the fluorescent peptide, CH3SO2-D-CHG-Gly-Arg-AFC.AcOH (“CHG” is cyclohexyl-glycine and “AFC” is trifluoro aminomethyl coumarin). Factor IXa cleaves the amide bond between Arg and AFC, thereby releasing the AFC fluorophore. The free AFC can be detected with a fluorescence detector at an excitation wavelength of 405 nm and emission wavelength of 510 nm.

Factor IXa, sequence (P00740 227-461 limits assumed): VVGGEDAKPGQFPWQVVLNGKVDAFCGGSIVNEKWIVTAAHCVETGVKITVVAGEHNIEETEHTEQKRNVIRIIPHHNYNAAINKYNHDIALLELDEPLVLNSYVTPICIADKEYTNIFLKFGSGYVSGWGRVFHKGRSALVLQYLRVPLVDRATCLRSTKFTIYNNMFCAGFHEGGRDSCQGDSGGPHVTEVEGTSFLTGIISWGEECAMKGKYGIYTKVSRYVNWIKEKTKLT
Factor IXa, sequence (P00740 47-191 partner limits assumed): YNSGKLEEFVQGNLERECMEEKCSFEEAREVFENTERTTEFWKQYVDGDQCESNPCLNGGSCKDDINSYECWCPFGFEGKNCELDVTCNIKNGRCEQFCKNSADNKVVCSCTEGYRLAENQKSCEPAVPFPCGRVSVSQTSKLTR

pIC50 | SMILES
8.52 | Nc1nsc2c1ccc1[nH]c([C@H](O)[C@H]3OCCN(c4ccn(-c5ccc(=O)n(C(F)F)c5)n4)C3=O)nc(=O)c12 [Example 10, (R)-2-((S)-(3-Amino-9-oxo-6,9-dihydroisothiazolo[5,4-f]quinazolin-7-yl)(hydroxy)methyl)-4-(1-(1-(difluoromethyl)-6-oxo-1,6-dihydropyridin-3-yl)-1H-pyrazol-3-yl)morpholin-3-one]
7.75 | Cc1cc(N2CCO[C@H]([C@@H](O)c3nc(=O)c4c(ccc5c(N)nsc54)[nH]3)C2=O)nn1-c1ccnc(C(F)(F)F)c1 [Example 8, (R)-2-((S)-(3-Amino-9-oxo-6,9-dihydroisothiazolo[5,4-f]quinazolin-7-yl)(hydroxy)methyl)-4-(5-methyl-1-(2-(trifluoromethyl)pyridin-4-yl)-1H-pyrazol-3-yl)morpholin-3-one]
